46 compounds from patent US9957271B2, “Substituted bicyclic aza-heterocycles and analogues as sirtuin modulators” (GlaxoSmithKline, LLC, priority 2012, dated 2018) can be followed below.

The target in this assay is T1, SIRT1 (Homo sapiens, UniProt Q96EB6).
T1 sequence (Q96EB6 1-747): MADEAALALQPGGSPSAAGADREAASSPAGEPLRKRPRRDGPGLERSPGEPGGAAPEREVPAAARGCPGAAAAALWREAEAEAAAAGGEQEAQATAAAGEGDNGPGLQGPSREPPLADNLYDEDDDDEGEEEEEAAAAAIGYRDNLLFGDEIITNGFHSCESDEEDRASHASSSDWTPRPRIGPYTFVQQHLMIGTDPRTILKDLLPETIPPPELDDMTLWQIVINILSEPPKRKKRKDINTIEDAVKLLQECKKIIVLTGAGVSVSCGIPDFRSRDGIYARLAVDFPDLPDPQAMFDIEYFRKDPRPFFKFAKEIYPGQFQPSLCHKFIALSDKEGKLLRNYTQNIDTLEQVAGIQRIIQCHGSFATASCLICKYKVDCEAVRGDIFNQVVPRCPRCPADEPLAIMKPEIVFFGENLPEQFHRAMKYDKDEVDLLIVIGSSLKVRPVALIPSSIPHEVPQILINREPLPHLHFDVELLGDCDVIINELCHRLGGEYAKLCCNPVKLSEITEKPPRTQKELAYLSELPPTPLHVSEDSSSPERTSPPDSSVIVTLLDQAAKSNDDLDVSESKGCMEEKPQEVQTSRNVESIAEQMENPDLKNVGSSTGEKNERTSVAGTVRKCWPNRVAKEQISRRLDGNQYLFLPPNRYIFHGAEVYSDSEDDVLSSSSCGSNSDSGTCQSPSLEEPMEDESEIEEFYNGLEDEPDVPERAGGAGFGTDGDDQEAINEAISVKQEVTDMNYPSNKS
The assay is described as follows: Trp mass spectrometry assay of SIRT1 activity. The class given is biochemical. The note with it: for Emax: read-out: Trp % Fold Act; for Trp EC1.5 (μM): concentration giving 150% activation of SIRT1. The method in brief:
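Activation readout: EC1.5 (concentration raising activity 50% over control) and percent maximum activation, from mass-spec quantitation of OAADPR or deacetylated Trp peptide. Reaction: 0.5 μM acetylated Trp peptide, 120 μM βNAD+, 10 nM bacterially expressed N-His SIRT1, pH 7.5 HEPES buffer with […], 25 min at 25° C.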

Where [1] appears, read: Trp assay, percent maximum fold activation.
[2] abbreviates: percent maximum fold activation of SIRT1, Trp peptide substrate.

Structures are written as SMILES. Like-named read-outs stand apart in the source and are kept apart here.

Turning to `Cc1nc2ccc(N3CCC(F)(F)C3)nn2c1C(=O)Nc1cccnc1` [Compound 980, 6-(3,3-difluoropyrrolidin-1-yl)-2-methyl-N-(pyridin-3-yl)imidazo[1,2-b]pyridazine-3-carboxamide], the Emax under setting [1] was at least 350%. With `O=C(Nc1ccncc1F)c1cnc2ccc(N3CC[C@H](F)C3)nn12` [Compound 839], the “Trp EC1.5 (μM)” value (Trp assay) was “B (EC1.5 1-25 μM)”. Under setting [1], the Emax is below 350%. In the same order, the values of `Cc1nc2ccc(N3CC[C@H](F)C3)nn2c1C(=O)Nc1cccnn1` [Compound 857] are “A (EC1.5<1 μM)” and at least 350%. For `Cc1nc2ccc(N3CCC(C(F)(F)F)C3)nn2c1C(=O)Nc1cccnn1` (stereo not shown) [Compound 998], the Emax under setting [1] was at least 350%. Same read-out and setting: to `CN1CCN(c2ccc3ncc(C(=O)Nc4cncc(F)c4)n3n2)CC1` [Compound 951] belongs below 350%. Consider `Cc1nn2ccc(N3CCC[C@H]3C(F)(F)F)nc2c1C(=O)Nc1cncc(F)c1` [Compound 1050], for which, under setting [2], the Emax is at least 350%.

Turning to `O=C(Nc1cccc2c1COB2O)c1cnc2ccc(N3CCCC3C(F)(F)F)nn12` (stereo not shown) [Compound 1097], the Emax under setting [2] was at least 350%. On to `O=C(Nc1cccnn1)c1cnc2ccc(N3CCCC3)nn12` [Compound 895], for which the “Trp EC1.5 (μM)” value (Trp assay) is given as “C (EC1.5>25 μM)”. In addition, the Emax under setting [1] was below 350%. In the case of `Cc1nc2ccc(N3CCCC3C(F)(F)F)nn2c1C(=O)Nc1cccnn1` (stereo not shown) [Compound 1006], under setting [2], the Emax is at least 350%.

For the compound `Cc1nc(NC(=O)c2c(C)nn3ccc(N4CCC[C@H]4C(F)(F)F)nc23)sc1C` [Compound 1033], the Emax under setting [2] was at least 350%. In the case of `Cc1cncc(NC(=O)c2c(C)nc3c(OC[C@H](O)CO)cc(-c4ccccc4C(F)(F)F)nn23)c1` [Compound 864], the “Trp EC1.5 (μM)” value (Trp assay) is “A (EC1.5<1 μM)”. Further, the Emax under setting [1] was at least 350%. Regarding `O=C(Nc1ccncn1)c1cnn2ccc(N3CCC[C@@H]3C(F)(F)F)nc12` [Compound 1093], the Emax under setting [2] is below 350%. As for `CN(C)[C@H]1CCN(c2ccc3ncc(C(=O)Nc4cccnn4)n3n2)C1` [Compound 879], the “Trp EC1.5 (μM)” value (Trp assay) is “B (EC1.5 1-25 μM)”. Under setting [1], the Emax is below 350%. For the compound `COc1nccc(NC(=O)c2cnc3ccc(N4CCC[C@@H]4C)nn23)n1` [Compound 1051], under setting [2], the Emax is below 350%.

`C[C@@H]1CN(c2ccc3ncc(C(=O)Nc4cccnc4)n3n2)C[C@H](C)O1` [Compound 995]: the Emax under setting [1] is at least 350%. For `O=C(Nc1cccnn1)c1cnc2ccc(N3CCC(F)(F)CC3)nn12` [Compound 930], under “Trp assay”, the “Trp EC1.5 (μM)” value is recorded as “B (EC1.5 1-25 μM)”. In addition, the Emax under setting [1] is at least 350%. As to `Cc1nn2ccc(N3CCC[C@H]3C(F)(F)F)nc2c1C(=O)Nc1ccccn1` [Compound 1035], under setting [2], the Emax was at least 350%. Take `O=C(Nc1ccccn1)c1cnc2ccc(N3CCCC3C(F)(F)F)nn12` (stereo not shown) [Compound 974]: the Emax under setting [1] was at least 350%. Consider `O=C(Nc1cnccn1)c1cnn2ccc(N3CCC(C(F)(F)F)CC3)nc12` [Compound 1061], for which the Emax under setting [2] is at least 350%. Still for that read-out and setting: to `O=C(Nc1ccccn1)c1cnn2ccc(N3CCC(C(F)(F)F)CC3)nc12` [Compound 1060] belongs at least 350%. Consider `O=C(Nc1cnccn1)c1cnc2ccc(N3CC(F)(F)C3)nn12` [Compound 926], for which the “Trp EC1.5 (μM)” value (Trp assay) was “C (EC1.5>25 μM)”. The Emax under setting [1] is below 350%. With `Cc1ccc(NC(=O)c2c(C)nc3c(OC[C@H](O)CO)cc(-c4ccccc4C(F)(F)F)nn23)cn1` [Compound 865], the “Trp EC1.5 (μM)” value (Trp assay) was “A (EC1.5<1 μM)”. The Emax under setting [1] was at least 350%. Regarding `Cc1ccc(NC(=O)c2cnc3ccc(N4CC[C@H](F)C4)nn23)cn1` [Compound 920], the “Trp EC1.5 (μM)” value (Trp assay) is listed as “B (EC1.5 1-25 μM)”. In addition, under setting [1], the Emax is below 350%.

For `O=C(Nc1cccnn1)c1cnn2ccc(N3CCC(C(F)(F)F)CC3)nc12` [Compound 1062], under setting [2], the Emax was at least 350%. As for `O=C(Nc1cccnc1)c1cnn2ccc(N3CCCCC3C(F)(F)F)nc12` (stereo not shown) [Compound 945, N-(pyridin-3-yl)-5-(2-(trifluoromethyl)piperidin-1-yl)pyrazolo[1,5-a]pyrimidine-3-carboxamide], for the setting “Trp assay”, the “Trp EC1.5 (μM)” value is reported as “A (EC1.5<1 μM)”. Moreover, the Emax under setting [1] is at least 350%. `O=C(Nc1cccnn1)c1cnn2ccc(N3CCC[C@H]3C(F)(F)F)nc12` [Compound 1030]: the Emax under setting [2] is at least 350%.

Consider `C[C@H]1CCCN1c1ccc2ncc(C(=O)Nc3cccnc3)n2n1` [Compound 1056], for which, under setting [2], the Emax is below 350%. Same read-out and setting: to `Cc1nc2ccc(N3CCC[C@H]3C(F)(F)F)nn2c1C(=O)Nc1cccnn1` [Compound 1018] belongs at least 350%; to `CC1CCCN1c1ccn2ncc(C(=O)Nc3cccnc3)c2n1` (stereo not shown) [Compound 1044], at least 350%. In the case of `CC1(C)CCN(c2ccc3ncc(C(=O)Nc4cncc(F)c4)n3n2)C1` [Compound 956], under setting [1], the Emax is below 350%.

Consider `COc1cc(NC(=O)c2cnc3ccc(N4CC[C@H](F)C4)nn23)ncn1` [Compound 922], for which the “Trp EC1.5 (μM)” value (Trp assay) is on record as “C (EC1.5>25 μM)”. Moreover, under setting [1], the Emax is below 350%. `O=C(Nc1cccnn1)c1cnc2ccc(N3CC(F)(F)C3)nn12` [Compound 916]: the “Trp EC1.5 (μM)” value (Trp assay) is given as “C (EC1.5>25 μM)”. Under setting [1], the Emax was below 350%. In the case of `CN(C)c1cccc(NC(=O)c2cnc3ccc(-c4cccc(OC[C@H](O)CO)c4)nn23)n1` [Compound 876], for the setting “Trp assay”, the “Trp EC1.5 (μM)” value is reported as “A (EC1.5<1 μM)”. Moreover, the Emax under setting [1] was at least 350%. As to `O=C(Nc1cccnc1)c1cnc2ccc(-c3cccc(OC[C@H](O)CO)c3)nn12` [Compound 858], where the note is “Trp assay”, the “Trp EC1.5 (μM)” value was “B (EC1.5 1-25 μM)”. The Emax under setting [1] was below 350%.

In the case of `CN(C)c1ccnc(NC(=O)c2cnc3ccc(N4CC[C@H](F)C4)nn23)n1` [Compound 923], the “Trp EC1.5 (μM)” value (Trp assay) is “A (EC1.5<1 μM)”. Further, under setting [1], the Emax was at least 350%.

Turning to `Cc1nc(NC(=O)c2cnn3ccc(N4CCC[C@@H]4C(F)(F)F)nc23)sc1C` [Compound 1088], the Emax under setting [2] is at least 350%.

With `O=C(Nc1cccnc1)c1cnc2ccc(N3CC(F)(F)C3)nn12` [Compound 913], the “Trp EC1.5 (μM)” value (Trp assay) is “B (EC1.5 1-25 μM)”. Under setting [1], the Emax is below 350%. Consider `CC1CCN(c2ccc3ncc(C(=O)Nc4cncc(F)c4)n3n2)C1` (stereo not shown) [Compound 979], for which, under setting [1], the Emax is at least 350%. Regarding `O=C(Nc1cc(-c2cnco2)ccn1)c1cnn2ccc(N3CCC[C@@H]3C(F)(F)F)nc12` [Compound 1091], under setting [2], the Emax was at least 350%. Still for that read-out and setting: under `O=C(Nc1cc(-c2cnco2)ccn1)c1cnn2ccc(N3CCC(C(F)(F)F)CC3)nc12` [Compound 1074] stands at least 350%. As to `O=C(Nc1cccnc1)c1cnc2ccc(N3CCC(F)(F)C3)nn12` [Compound 908], the “Trp EC1.5 (μM)” value (Trp assay) is “B (EC1.5 1-25 μM)”. In addition, the Emax under setting [1] was below 350%. Regarding `O=C(Nc1cncc(F)c1)c1cnn2ccc(N3CCC(C(F)(F)F)CC3)nc12` [Compound 1067], the Emax under setting [2] is at least 350%. Turning to `C[C@@H]1CN(c2ccc3ncc(C(=O)Nc4cccnn4)n3n2)CCO1` [Compound 1003], the Emax under setting [2] is at least 350%. In the case of `CC1CCN(c2ccc3ncc(C(=O)Nc4cccnc4)n3n2)C1` (stereo not shown) [Compound 976], the Emax under setting [1] was at least 350%. Turning to `CN1CCN(c2ccc3ncc(C(=O)Nc4cccnn4)n3n2)CC1` [Compound 950], the Emax under setting [1] is below 350%. In the case of `O=C(Nc1ccncn1)c1cnc2ccc(N3CC(F)(F)C3)nn12` [Compound 921], the “Trp EC1.5 (μM)” value (Trp assay) is “C (EC1.5>25 μM)”. In addition, the Emax under setting [1] is below 350%.
